From patent US10494341B2, “Compound containing indoleacetic acid core structure and use thereof” (Beijing An Jian Xi Bio-Medical Technology Co., Ltd., priority 2015, dated 2019)

Tests used:
[1] = system: HT-29 cells; assay: HT-29 transplanted tumors in nude mice, compound a in combination with doxorubicin; format: in vivo; conditions: Doxorubicin 2 mg/kg/week i.p. or compound a 3 mg/kg/day gavage, 4 weeks
Procedure: Compound a was administered by gavage once a day for 4 weeks continuously; Doxorubicin was injected intraperitoneally once a week for 4 weeks. Body weight and tumor volume of animals were measured and calculated according to Example 9.

[2] = Metabolic kinetics in mice after gavage (plasma level of intermediate II); format: in vivo
Procedure: Metabolic kinetics of the compound a in mice: the compound a and the intermediate II were administered to mice respectively by gavage at a dose of 25 mg/kg each time and 12 mg/kg each time (equimolar concentration). Equal volume of blood samples were collected at the time points of 1, 3, 5, 9, 18 and 24 hours, and centrifuged immediately. 100 μL of supernatant (plasma) was got, added with 2-fold volume of acetonitrile immediately to extract the blood samples twice, and centrifuged at high speed (12,000 rpm) for 5 minutes. The level of the intermediate II in the organic phase was determined by HPLC, and the content of the compound fragments was detected by LC-MS. Pharmacokinetics was analyzed by Pharmacokinetics Solutions 2.0 software (Summit Research Services, Montrose, Colo., USA).

[3] = gavage, compound a 25 mg/kg, intermediate II 12 mg/kg (equimolar), intermediate II measured in plasma

COC1=C(OC)C(=O)C(CCCCCCCCCCOC(=O)Cc2c(C)n(C(=O)c3ccc(Cl)cc3)c3cc(OC)ccc23)=C(C)C1=O [compound a]
inhibition of the tumor, administered alone [1]: only slightly inhibited
content of intermediate II in plasma, versus mice given intermediate II ([2]; gavage 25 mg/kg): significantly higher
metabolites in plasma ([2]; gavage 25 mg/kg): significantly reduced
AUC0 [2, 3]: 63200 ng·h/mL
Cmax [2, 3]: 19800 ng/mL
T1/2 [2, 3]: 7.6 h
Tmax [2, 3]: 5 h
